According to patent US20250236613A1, “SARM1 MODULATORS, PREPARATIONS, AND USES THEREOF” (SIRONAX LTD., priority 2021, published 2025):
pIC50: −log10 of the molar value.

Biological target: SARM1 (50-724) (Homo sapiens (Human), UniProt Q6SZW1)
Assay: SARM1 (50-724) enzymatic assay
Format: biochemical
Conditions: SARM1 inhibitory activity; 2 nM SARM1 (50-724), 200 μM NMN activator, 100 μM NAD+ substrate, 1 h, LC-MS/MS
Description: The enzymatic assay was performed in a 384-well plate using Dulbecco's PBS buffer as the reaction buffer. Purified SARM1 (50-724) with a final concentration of 2 nM was pre-incubated with the test compound at 1% DMSO final assay concentration for 15 min at room temperature. The reaction was initiated by adding the mixture of 200 μM NMN as activator and 100 μM NAD^+ as substrate. After 1 h of incubation at room temperature, the reaction was terminated with 10 times volume of 70% acetonitrile, then centrifuged at 3800 rpm for 10 min. The samples were analyzed using LC-MS/MS after diluted to the proper concentration by 10 mM ammonium acetate (pH 9.75).

SARM1 (50-724), sequence (Q6SZW1 50-724): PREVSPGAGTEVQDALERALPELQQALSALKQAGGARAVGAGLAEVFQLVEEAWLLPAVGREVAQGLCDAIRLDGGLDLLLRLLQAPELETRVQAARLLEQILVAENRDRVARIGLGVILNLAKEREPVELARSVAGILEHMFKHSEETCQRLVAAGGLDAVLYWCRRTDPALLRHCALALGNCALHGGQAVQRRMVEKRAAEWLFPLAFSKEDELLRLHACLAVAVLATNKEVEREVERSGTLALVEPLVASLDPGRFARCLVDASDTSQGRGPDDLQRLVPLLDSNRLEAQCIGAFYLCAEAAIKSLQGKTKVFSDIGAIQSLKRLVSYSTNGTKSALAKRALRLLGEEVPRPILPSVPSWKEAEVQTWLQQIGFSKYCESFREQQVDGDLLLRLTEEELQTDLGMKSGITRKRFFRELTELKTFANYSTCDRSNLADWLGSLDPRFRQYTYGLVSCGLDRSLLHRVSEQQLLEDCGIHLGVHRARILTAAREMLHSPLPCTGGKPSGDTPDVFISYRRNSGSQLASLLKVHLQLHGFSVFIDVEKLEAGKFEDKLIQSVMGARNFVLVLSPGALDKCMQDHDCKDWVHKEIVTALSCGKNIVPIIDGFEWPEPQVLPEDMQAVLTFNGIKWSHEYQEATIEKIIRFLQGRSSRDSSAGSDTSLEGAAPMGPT

Row | pIC50 | SMILES
1 | > 5.30 | Cc1ccncc1-c1ccc2c(c1)C(F)(F)C(=O)N2 [Compound 81, 3,3-difluoro-5-(4-methylpyridin-3-yl)indolin-2-one]
2 | 4.52 to 4.82 | Cc1ccncc1-c1ccc2c(c1)N(C)S(=O)(=O)N2 [Compound 70, 1-methyl-6-(4-methylpyridin-3-yl)-1,3-dihydrobenzo[c][1,2,5]thiadiazole 2,2-dioxide]
3 | > 5.30 | O=c1[nH]c2ccc(-c3cncc(Nc4ccc(F)cc4)c3)cc2o1 [Compound 100, 6-(5-((4-fluorophenyl)amino)pyridin-3-yl)benzo[d]oxazol-2(3H)-one]
4 | > 5.30 | Cc1ccncc1-c1ccc2[nH]c(C#N)nc2c1 [Compound 89, 5-(4-methylpyridin-3-yl)-1H-benzo[d]imidazole-2-carbonitrile]
5 | 4.52 to 4.82 | Cc1ccncc1-c1ccc2[nH]ncc2c1F [Compound 74, 4-fluoro-5-(4-methylpyridin-3-yl)-1H-indazole]
6 | > 5.30 | CN(c1ccccc1)c1cncc(-c2ccc3[nH]c(=O)oc3c2)c1 [Compound 109, 6-(5-(methyl(phenyl)amino)pyridin-3-yl)benzo[d]oxazol-2(3H)-one]
7 | > 5.30 | Cc1ccncc1-c1ccc(O)c(Br)c1 [Compound 15, 2-bromo-4-(4-methylpyridin-3-yl)phenol]
8 | > 5.30 | O=c1[nH]c2ccc(-c3cccnc3)cc2o1 [Compound 84, 6-(pyridin-3-yl)benzo[d]oxazol-2(3H)-one]
9 | < 4.52 | Cc1ccncc1-c1ccc(F)c(O)c1F [Compound 35, 2,6-difluoro-3-(4-methylpyridin-3-yl)phenol]
10 | < 4.52 | Cc1ccncc1-c1ccc(O)c(F)c1 [Compound 11, 2-fluoro-4-(4-methylpyridin-3-yl)phenol]
11 | > 5.30 | O=c1[nH]c2ccc(-c3cncc(Nc4cccc(O)c4)c3)cc2o1 [Compound 95, 6-(5-((3-hydroxyphenyl)amino)pyridin-3-yl)benzo[d]oxazol-2(3H)-one]
12 | > 5.30 | Cc1ccncc1-c1ccc2[nH]nc(F)c2c1 [Compound 68, 3-fluoro-5-(4-methylpyridin-3-yl)-1H-indazole]
13 | > 5.30 | CCc1cc(-c2cnccc2C)ccc1O [Compound 29, 2-ethyl-4-(4-methylpyridin-3-yl)phenol]
14 | > 5.30 | Cc1cc(-c2cnccc2C)ccc1O [Compound 28, 2-methyl-4-(4-methylpyridin-3-yl)phenol]
15 | > 5.30 | O=c1[nH]c2ccc(-c3cncc(Nc4cncnc4)c3)cc2o1 [Compound 114, 6-(5-(pyrimidin-5-ylamino)pyridin-3-yl)benzo[d]oxazol-2(3H)-one]
16 | > 5.30 | Cc1ccncc1-c1cccc(C(F)F)c1 [Compound 62, 3-(3-(difluoromethyl)phenyl)-4-methylpyridine]
17 | > 5.30 | Cc1ccncc1-c1cc(O)cc(Br)c1 [Compound 16, 3-bromo-5-(4-methylpyridin-3-yl)phenol]
18 | > 5.30 | Cc1ccncc1-c1ccc2c(c1)CC(=O)N2 [Compound 41, 5-(4-methylpyridin-3-yl)indolin-2-one]
19 | < 4.52 | Cc1ccncc1-c1ccc2c(c1)OCCN2 [Compound 53, 7-(4-methylpyridin-3-yl)-3,4-dihydro-2H-benzo[b][1,4]oxazine]
20 | > 5.30 | Cn1cc(Nc2cncc(-c3ccc4[nH]c(=O)oc4c3)c2)cn1 [Compound 108, 6-(5-((1-methyl-1H-pyrazol-4-yl)amino)pyridin-3-yl)benzo[d]oxazol-2(3H)-one]
21 | 4.82 to 5.30 | Cc1ccncc1-c1ccc2[nH]ncc2n1 [Compound 50, 5-(4-methylpyridin-3-yl)-1H-pyrazolo[4,3-b]pyridine]
22 | > 5.30 | Cc1ccncc1-c1ccc(O)c(C#N)c1 [Compound 6, 2-hydroxy-5-(4-methylpyridin-3-yl)benzonitrile]

Row | SMILES | pIC50
23 | Cc1ccncc1-c1ccc2c(c1)CNC(=N)N2 [Compound 79, 6-(4-methylpyridin-3-yl)-3,4-dihydroquinazolin-2(1H)-imine] | > 5.30
